In patent publication US20150275187A1, “FURFURAL-RESISTANT GENE AND FURFURAL-RESISTANT STRAINS COMPRISING THE SAME” (KOREA INSTITUTE OF SCIENCE AND TECHNOLOGY, priority 2014, published 2015):

How the values were obtained:
[1] = system: Corynebacterium glutamicum ATCC 13032; assay: Growth inhibitory effect of furfural in wild type strain; assay type: cell-based
Experimental: In order to develop a furfural-resistant strain, first of all, Corynebacterium glutamicum is selected as a wild type, and then, growth inhibitory effect of furfural at Corynebacterium glutamicum wild type strain (wild type), which is Corynebacterium glutamicum ATCC 13032, depending on concentration, and concentrations of furfural and furfuryl alcohol in a culture solution depending on cell growth are confirmed.
Specifically, as the culture solution, 2% glucose as a carbon source is added to a minimal medium, CGXII medium, and furfural of 6.5 mM, 13 mM and 20 mM are added thereto, respectively, to compare growth speed with the case not adding the furfural. At this time, the composition of the CGXII medium is 20 g/L (NH4)2504, 5 g/L Urea, 1 g/L KH2PO4, 1 g/L K2HPO4, 0.25 g/L MgSO4.7H2O, 42 g/L MOPS, 10 mg/L CaCl2, 0.2 mg/L Biotin, 0.03 g/L Protecatechuic acid, Trace metal (10 mg/L FeSO4.7H2O, 10 mg/L MnSO4.H2O, 1 mg/L ZnSO4.7H2O, 0.2 mg/L CuSO4.7H2O, 0.02 mg/L NiCl2.6H2O). Culture is conducted at 30° C. after inoculating the cells (initial OD600=1) into the culture solution 50 mL in a 250 mL Erlenmeyer flask.

[2] = system: cg1310 (rolM, Maleylacetate reductase) mRNA; assay: Microarray gene expression depending on furfural concentration; assay type: cell-based, Corynebacterium glutamicum; details: against wild type in medium not containing furfural
Excerpt: As a result, among the genes, which are expected to have similarity, cg1310 (SEQ ID No.: 2) showing increased expression at microarray is selected as the target gene. And, information about the selected target gene, and expression level of the target gene depending on the furfural concentration in the medium, which is obtained by analyzing gene expression pattern thereof depending on the furfural concentration using microarray, are shown in the following Table 1.
As a result of analysis, compared with the medium not containing the furfural, the mRNA expression level of the target gene is increased in the medium containing the furfural, and the mRNA expression level of the target gene is further increased when the furfural concentration is increased from 6.5 mM to 13 mM.
(§1) DNA Microarray is used as a method for analyzing gene expression depending on the furfural stress.

[3] = system: cg0310 (katA, catalase) mRNA; assay: as above; assay type: cell-based, Corynebacterium glutamicum; details: against wild type in medium not containing furfural
Excerpt: as §1
(§2) Specifically, among genes corresponding to the module classified at http://www.coryneregnet.de/ of entire genes, and genes, whose corresponding protein names contain at least one of transport, permease and pump, genes showing increased expression level at all furfural concentrations are selected, and then, genes showing about 10 folds or more increased expression level at least one concentration are selected. And, among the selected genes, existing genes, which are known to response to stress, are excluded by literature search, and cg0310 (SEQ ID No.: 3), cg1661 (SEQ ID No.: 1), cg3374 (SEQ ID No.: 4) and cg3399 (SEQ ID No.: 5) are selected as the target gene. These are catalase, efflux pump in the cell membrane, oxidoreductase and permease-type genes. Then, information of the target genes selected by microarray, and expression levels of the target genes depending on the furfural concentration in the medium, which are obtained by analyzing gene expression pattern thereof using microarray, are shown in the following Table 2.
(§3) The gene expression levels of the above Table 2 show the relative mRNA expression levels of the target genes of the wild type strain grown in the medium containing the furfural, against the wild type strain grown without stress in the medium not containing the furfural. As a result of analysis, compared with the medium not containing the furfural, the mRNA expression levels of each target gene are increased in the medium containing the furfural, and the mRNA expression levels of the target genes are further increased as the furfural concentration is increased.

[4] = system: cg1661 (Arsenite efflux pump ACR3 or related permease) mRNA; assay: as above; assay type: cell-based, Corynebacterium glutamicum; details: against wild type in medium not containing furfural
Excerpt: as §1, §2, §3

[5] = system: cg3374 (cye1, Putative NADH-dependent flavin oxidoreductase) mRNA; assay: as above; assay type: cell-based, Corynebacterium glutamicum; details: against wild type in medium not containing furfural
Excerpt: as §1, §2, §3

[6] = system: cg3399 (Permease of the major facilitator superfamily) mRNA; assay: as above; assay type: cell-based, Corynebacterium glutamicum; details: against wild type in medium not containing furfural
Excerpt: as §1, §2, §3

[7] = Furfural Conc. in Medium: 6.5 mM
[8] = Furfural Conc. in Medium: 13 mM
[9] = Furfural Conc. in Medium: 20 mM

## O=Cc1ccco1 [furfural]
[1]; 6.5 mM furfural, CGXII medium with 2% glucose, 30° C.
  growth reduction compared with the medium not containing the furfural: ≥ 50%
[1]; furfural 6.5, 13 and 20 mM in CGXII medium
  growth speed of the strain: becomes slow as the furfural concentration in the medium is increased
[2]; [7]
  Gene Expression Level (relative mRNA) cg1310: 1.476
[2]; [8]
  Gene Expression Level (relative mRNA) cg1310: 2.872
[2]; [9]
  Gene Expression Level (relative mRNA) cg1310: 2.183
[3]; [7]
  Gene Expression Level (relative mRNA) cg0310: 3.219
[3]; [8]
  Gene Expression Level (relative mRNA) cg0310: 3.443
[3]; [9]
  Gene Expression Level (relative mRNA) cg0310: 10.956
[4]; [7]
  Gene Expression Level (relative mRNA) cg1661: 7.240
[4]; [8]
  Gene Expression Level (relative mRNA) cg1661: 3.071
[4]; [9]
  Gene Expression Level (relative mRNA) cg1661: 13.186
[5]; [7]
  Gene Expression Level (relative mRNA) cg3374: 1.461
[5]; [8]
  Gene Expression Level (relative mRNA) cg3374: 3.219
[5]; [9]
  Gene Expression Level (relative mRNA) cg3374: 29.016
[6]; [7]
  Gene Expression Level (relative mRNA) cg3399: 4.485
[6]; [8]
  Gene Expression Level (relative mRNA) cg3399: 6.529
[6]; [9]
  Gene Expression Level (relative mRNA) cg3399: 15.694
